# Publication PMC6009893, “Synthesis, biological activity and molecular modelling studies of shikimic acid derivatives as inhibitors of the shikimate dehydrogenase enzyme of Escherichia coli” (Journal of Enzyme Inhibition and Medicinal Chemistry, 2018)
# What was measured:
# [1] = target: T1, EcSDH (shikimate dehydrogenase enzyme of Escherichia coli) (Escherichia coli, UniProt P15770); experiment: EcSDH enzymatic activity assay (NADPH oxidation at 340 nm, DHS as substrate); format: biochemical; settings: for KI (dissociation constant for the enzyme-substrate-inhibitor complex): 25 °C, NADPH 0.21 mM, DHS 0.0625-1.5 mM, mixed type inhibition, triplicate
# T1 construct: 6-Histidine tag (pCold-I) (N, cleaved yes); made in house; host or cells: E. coli ΔaroE::KanR (JW3242, Keio collection) carrying pCold-EcSDH
# T1 sequence (P15770 whole entry): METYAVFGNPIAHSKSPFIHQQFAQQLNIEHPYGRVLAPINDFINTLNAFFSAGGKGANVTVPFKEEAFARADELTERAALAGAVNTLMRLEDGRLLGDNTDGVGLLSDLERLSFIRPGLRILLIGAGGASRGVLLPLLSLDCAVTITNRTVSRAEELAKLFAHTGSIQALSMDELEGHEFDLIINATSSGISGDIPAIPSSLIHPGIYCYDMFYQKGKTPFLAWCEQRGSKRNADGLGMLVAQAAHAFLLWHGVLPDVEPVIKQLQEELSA
# Procedure: The enzymatic activity of EcSDH was assayed at 25 °C by monitoring the oxidation of NADPH at 340 nm (ϵ = 6.18 × 10^3 M^−1 cm^−1). All assays were performed in a Genesys 10 S UV-vis spectrophotometer (Thermo Fisher Scientific Inc., Waltham, MA). The reaction mix contained (final volume 200 µl) KH2PO4 100 mM pH 7.5, NADPH 0.21 mM, DHS, synthesised molecules and diluted enzyme. Stored enzyme stocks (200 U/ml) were diluted 1:100 in KH2PO4 100 mM pH 7.5 before use. The reaction was initiated by addition of 2 µl of the diluted EcSDH enzyme and absorbance was measured within 2 min. During assays NADPH concentration was fixed at 0.21 mM, DHS concentrations were 0.0625, 0.125, 0.25, 0.5, 1 and 1.5 mM and concentrations of amides were 0, 0.25, 0.5, 1 and 1.5 mM. Experiments were performed in triplicate.
# To determine the inhibition mode Lineweaver–Burk plots of the inverse of velocities (1/v) versus the inverse of substrate concentration 1/[S] were obtained. The Michaelis–Menten constant (Km), maximum velocity (Vmax) and inhibition constants (Ki and KI) were analysed using Equation (1)[22]^,[23]. Where I represent the inhibitor concentration, KI is defined as the dissociation constant for the enzyme-substrate-inhibitor complex and Ki as the dissociation constant for the enzyme-inhibitor complex. Kinetic data were processed by nonlinear regression using the Origin software (OriginLab, Northampton, MA).
# Dissociation constants were related to IC50 values following the Cheng–Prusoff Equation (2)[24]. Where IC50 represents the concentration of inhibitor producing 50% of enzyme inhibition. The determined Km of DHS was 92.29 ± 2.70 µM, and 125 µM of DHS was delimited as the substrate concentration [S]: (1) v=Vmax [S]/S1+I/KI+ Km(1+ [I]/Ki) (2) IC50= Km+[S]/Km/Ki+ ([S]/KI).
# The inhibitory effect of SA amide-derivatives was tested against EcSDH at […]. To characterise the enzymatic activity for its more biological meaningful reaction, the enzyme was assayed in the direction of SA formation, for this DHS was used as the substrate. The activity of EcSDH enzyme was determined in the presence of different concentrations of synthesised compounds, and Lineweaver–Burk plots of (1/v) versus 1/[S] were obtained. […] To characterise the kinetic parameters, data were analysed using Equation (1). For every synthesised amide Ki < KI indicating a stronger affinity for the substrate free instead of bounded substrate enzyme. […] Despite the similar magnitude of inhibition, it appears that inhibition activity smoothly increases with increase in the alkyl chain length. […] The similar inhibitory effect of diamides may arise with strong participation of the extra SA substituent.
# [2] = tested on: E. coli strain JM101; experiment: Minimal inhibitory concentration (MIC), broth microdilution; format: cell-based; settings: Escherichia coli, LB media, 37 °C, 16 h, tested 4-512 mg/l, duplicate
# Procedure: The broth microdilution method[25] was used to determine the MIC of synthesised molecules against E. coli strain JM101. Cells were grown to exponential phase in LB media (OD600nm ∼0.5) and the cultures were diluted to a concentration of 2 × 10^5 colony-forming units/ml. The 96-well plates containing 75 µl of LB media and synthesised compounds were inoculated with 75 µl of the bacterial suspension and shaken at 37 °C for 16 h. Compounds were tested in a range of doubling concentrations between 4 and 512 mg/l with a final dimethylsulphoxide concentration of 0.8% (v/v). LB media supplemented with kanamycin was used as a positive control, and the OD600nm of the DMSO-treated control was taken as representative of 100% bacterial growth. […] Experiments were performed in duplicate.
# [3] = tested on: SDH enzyme of Escherichia coli (EcSDH); parameters: method as in earlier work; settings: cited from earlier work
# [4] = target: SDH of H. pylori; parameters: method as in PMID 16972983; settings: SA; non-competitive inhibitor; cited from earlier work
# [5] = tested on: H. pylori; parameters: method as in PMID 16972983; settings: in vitro antibacterial activity; cited from earlier work
# [6] = tested on: SDH of Pseudomonas putida; parameters: method as in PMID 24632659; settings: cited from earlier work
# [7] = target: Pisum sativum SDH enzyme; parameters: method as in PMID 13686343; settings: SA; competitive inhibition; cited from earlier work
Structure (SMILES),IC50 [1] [µM],Ki [1] [µM],KI (dissociation constant for the enzyme-substrate-inhibitor complex) [1] [µM],MIC [2] [µg/mL],further results
"O=C(NCCNC(=O)C1=C[C@@H](O)[C@@H](O)[C@H](O)C1)C1=C[C@@H](O)[C@@H](O)[C@H](O)C1 [Dim2, (3R,3'R,4S,4'S,5R,5'R)-N,N'-(ethane-1,2-diyl)bis(3,4,5-trihydroxycyclohex-1-ene-1-carboxamide)]",588 ± 55,416 ± 69,831 ± 12,512,
"O=C(NCCCNC(=O)C1=C[C@@H](O)[C@@H](O)[C@H](O)C1)C1=C[C@@H](O)[C@@H](O)[C@H](O)C1 [Dim3, (3R,3'R,4S,4'S,5R,5'R)-N,N'-(propane-1,3-diyl)bis(3,4,5-trihydroxycyclohex-1-ene-1-carboxamide)]",589 ± 56,400 ± 50,896 ± 72,512,
"O=C(NCCCCNC(=O)C1=C[C@@H](O)[C@@H](O)[C@H](O)C1)C1=C[C@@H](O)[C@@H](O)[C@H](O)C1 [Dim4, (3R,3'R,4S,4'S,5R,5'R)-N,N'-(butane-1,4-diyl)bis(3,4,5-trihydroxycyclohex-1-ene-1-carboxamide)]",652 ± 65,458 ± 81,945 ± 13,512,
"O=C(NCCCO)C1=C[C@@H](O)[C@@H](O)[C@H](O)C1 [Mon3, (3R,4S,5R)-3,4,5-trihydroxy-N-(3-hydroxypropyl)cyclohex-1-ene-1-carboxamide]",949 ± 33,733 ± 67,1214 ± 58,512,
"O=C(NCCCCO)C1=C[C@@H](O)[C@@H](O)[C@H](O)C1 [Mon4, (3R,4S,5R)-3,4,5-trihydroxy-N-(4-hydroxybutyl)cyclohex-1-ene-1-carboxamide]",882 ± 54,717 ± 71,1145 ± 130,512,
"O=C(NCCCCCO)C1=C[C@@H](O)[C@@H](O)[C@H](O)C1 [Mon5, (3R,4S,5R)-3,4,5-trihydroxy-N-(5-hydroxypentyl)cyclohex-1-ene-1-carboxamide]",953 ± 10,642 ± 34,1483 ± 91,512,
"O=C(NCCCCCCO)C1=C[C@@H](O)[C@@H](O)[C@H](O)C1 [Mon6, (3R,4S,5R)-3,4,5-trihydroxy-N-(6-hydroxyhexyl)cyclohex-1-ene-1-carboxamide]",829 ± 49,587 ± 49,1188 ± 26,512,
"O=C(O)C1=C[C@@H](O)[C@@H](O)[C@H](O)C1 [SA, (-)-shikimic acid]",,,,,Ki [3]: 160 µM
COc1cc(/C=C/C(=O)CC(=O)/C=C/c2ccc(O)c(OC)c2)ccc1O [curcumin],,,,,Ki [4]: 6 µM; MIC [5]: 16 µg/mL
O=C(O[C@@H]1Cc2c(O)cc(O)cc2O[C@@H]1c1cc(O)c(O)c(O)c1)c1cc(O)c(O)c(O)c1 [epigallocatechin gallate],,,,,IC50 [6]: 3 µM
O=C(O)c1cc(O)c(O)c(O)c1 [gallic acid],,,,,Ki [7]: 380 µM
O=C(O)c1ccc(O)c(O)c1 [protocatechuic acid],,,,,Ki [7]: 750 µM
COc1cc(C=O)ccc1O [vanillin],,,,,Ki [7]: 93 µM
